≈ marks a conversion by molar mass, not a printed value.
Key:
[1] = Selectivity ratio of Ki for cloned human GABA alpha-2-beta-3-gamma-2 receptor expressed in insect SF9 cells to Ki for cloned human GABA alpha-5-beta-3-gamma-2 receptor expressed in insect SF9 cells
[2] = molecular target: T1, GABA-A receptor; alpha-5/beta-3/gamma-2 (Homo sapiens, UniProt P18507+P28472+P31644); assay: Displacement of [3H]Flumazenil from human GABA alpha-5-beta-3-gamma-2 receptor expressed in insect SF9 cells
T1 sequence (P18507 whole entry): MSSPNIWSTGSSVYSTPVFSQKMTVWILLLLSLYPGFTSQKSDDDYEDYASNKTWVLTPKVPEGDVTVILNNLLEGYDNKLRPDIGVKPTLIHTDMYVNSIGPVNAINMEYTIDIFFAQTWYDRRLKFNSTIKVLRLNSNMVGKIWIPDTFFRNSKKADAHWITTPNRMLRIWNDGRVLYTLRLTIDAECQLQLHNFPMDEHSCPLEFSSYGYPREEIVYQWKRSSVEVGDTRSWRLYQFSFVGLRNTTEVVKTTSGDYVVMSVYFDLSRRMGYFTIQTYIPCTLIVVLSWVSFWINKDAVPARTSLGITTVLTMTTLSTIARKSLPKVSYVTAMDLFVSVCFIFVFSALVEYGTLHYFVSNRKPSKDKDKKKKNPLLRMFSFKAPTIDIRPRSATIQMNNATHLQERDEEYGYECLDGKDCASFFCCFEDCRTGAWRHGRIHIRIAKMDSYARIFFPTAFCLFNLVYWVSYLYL
T1 sequence (P28472 whole entry): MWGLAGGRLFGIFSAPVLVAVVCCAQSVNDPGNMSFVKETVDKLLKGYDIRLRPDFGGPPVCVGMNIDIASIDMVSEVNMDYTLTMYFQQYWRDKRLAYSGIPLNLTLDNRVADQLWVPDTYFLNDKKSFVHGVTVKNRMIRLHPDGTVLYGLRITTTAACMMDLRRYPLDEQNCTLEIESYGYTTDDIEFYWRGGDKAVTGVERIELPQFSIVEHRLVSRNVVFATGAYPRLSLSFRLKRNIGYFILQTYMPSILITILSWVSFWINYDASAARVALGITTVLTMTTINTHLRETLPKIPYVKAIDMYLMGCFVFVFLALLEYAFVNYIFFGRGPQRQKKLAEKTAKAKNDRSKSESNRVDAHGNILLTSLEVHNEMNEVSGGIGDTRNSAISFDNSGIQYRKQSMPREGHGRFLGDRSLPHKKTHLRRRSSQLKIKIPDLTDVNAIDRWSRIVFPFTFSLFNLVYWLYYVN
T1 sequence (P31644 whole entry): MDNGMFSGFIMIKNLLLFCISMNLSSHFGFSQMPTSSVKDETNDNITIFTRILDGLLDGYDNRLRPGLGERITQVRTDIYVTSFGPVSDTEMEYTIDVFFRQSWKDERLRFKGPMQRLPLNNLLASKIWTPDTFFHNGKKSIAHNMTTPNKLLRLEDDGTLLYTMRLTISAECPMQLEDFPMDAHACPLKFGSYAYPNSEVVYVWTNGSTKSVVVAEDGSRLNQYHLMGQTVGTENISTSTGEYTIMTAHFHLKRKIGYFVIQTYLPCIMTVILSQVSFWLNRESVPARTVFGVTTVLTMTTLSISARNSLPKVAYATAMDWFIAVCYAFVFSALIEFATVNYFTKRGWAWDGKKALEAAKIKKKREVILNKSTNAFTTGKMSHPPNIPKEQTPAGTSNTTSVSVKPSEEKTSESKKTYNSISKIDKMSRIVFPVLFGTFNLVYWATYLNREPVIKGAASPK

[3] = Selectivity ratio of Ki for cloned human GABA alpha-1-beta-3-gamma-2 receptor expressed in insect SF9 cells to Ki for cloned human GABA alpha-5-beta-3-gamma-2 receptor expressed in insect SF9 cells
[4] = molecular target: GABA A receptor alpha-5/beta-3/gamma-2 (Rattus norvegicus) (UniProt P18508+P19969+P63079); assay: Inverse agonist activity at rat GABA alpha-5-beta-3-gamma-2 receptor expressed in HEK293 cells by electrophysiology assay relative to GABA; type: functional, cell-based
[5] = Selectivity ratio of Ki for cloned human GABA alpha-3-beta-3-gamma-2 receptor expressed in insect SF9 cells to Ki for cloned human GABA alpha-5-beta-3-gamma-2 receptor expressed in insect SF9 cells
[6] = molecular target: Gamma-aminobutyric acid receptor subunit alpha-3 (Rattus norvegicus) (UniProt P20236); assay: Inverse agonist activity at rat GABA alpha-3-beta-3-gamma-2 receptor expressed in HEK293 cells by electrophysiology assay relative to GABA; type: functional, cell-based
[7] = molecular target: T2, GABA-A receptor; alpha-1/beta-3/gamma-2 (Homo sapiens, UniProt P14867+P18507+P28472); assay: Displacement of [3H]Flumazenil from cloned human GABA alpha-1-beta-3-gamma-2 receptor expressed in HEK293 cells; type: cell-based
T2 sequence (P14867 whole entry): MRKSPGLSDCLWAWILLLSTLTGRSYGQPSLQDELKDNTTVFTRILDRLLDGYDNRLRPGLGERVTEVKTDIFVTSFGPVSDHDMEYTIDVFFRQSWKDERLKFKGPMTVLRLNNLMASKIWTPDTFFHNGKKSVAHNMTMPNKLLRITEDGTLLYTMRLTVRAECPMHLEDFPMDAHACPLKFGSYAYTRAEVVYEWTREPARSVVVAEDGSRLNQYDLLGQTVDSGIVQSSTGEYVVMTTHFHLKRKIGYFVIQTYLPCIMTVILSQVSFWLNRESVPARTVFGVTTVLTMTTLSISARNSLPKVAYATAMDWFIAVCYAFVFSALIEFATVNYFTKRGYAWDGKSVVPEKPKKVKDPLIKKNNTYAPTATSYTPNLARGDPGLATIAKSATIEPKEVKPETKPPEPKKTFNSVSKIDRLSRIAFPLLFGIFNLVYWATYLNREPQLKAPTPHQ
T2 sequence (P18507 whole entry): T1 sequence (P18507 whole entry)
T2 sequence (P28472 whole entry): T1 sequence (P28472 whole entry)

[8] = molecular target: GABA A receptor alpha-2/beta-2/gamma-2 (Rattus norvegicus) (UniProt P18508+P23576+P63138); assay: Inverse agonist activity at rat GABA alpha-2-beta-3-gamma-2 receptor expressed in HEK293 cells by electrophysiology assay relative to GABA; type: functional, cell-based
[9] = Oral bioavailability in rat; type: ADME, organism-based; details: in vivo
[10] = molecular target: GABA-A receptor; alpha-1/beta-2/gamma-2 (Rattus norvegicus) (UniProt P18508+P62813+P63138); assay: Inverse agonist activity at rat GABA alpha-1-beta-3-gamma-2 receptor expressed in HEK293 cells by electrophysiology assay relative to GABA; type: functional, cell-based
[11] = Solubility by lypophlisation solubility assay; type: physicochemical
[12] = Permeability by PAMPA; type: ADME; details: read-out: permeability
[13] = Half life in rat; type: ADME, organism-based; details: in vivo
[14] = molecular target: T3, GABA-A receptor; alpha-3/beta-3/gamma-2 (Homo sapiens, UniProt P18507+P28472+P34903); assay: Displacement of [3H]Flumazenil from cloned human GABA alpha-3-beta-3-gamma-2 receptor expressed in HEK293 cells; type: cell-based
T3 sequence (P18507 whole entry): T1 sequence (P18507 whole entry)
T3 sequence (P28472 whole entry): T1 sequence (P28472 whole entry)
T3 sequence (P34903 whole entry): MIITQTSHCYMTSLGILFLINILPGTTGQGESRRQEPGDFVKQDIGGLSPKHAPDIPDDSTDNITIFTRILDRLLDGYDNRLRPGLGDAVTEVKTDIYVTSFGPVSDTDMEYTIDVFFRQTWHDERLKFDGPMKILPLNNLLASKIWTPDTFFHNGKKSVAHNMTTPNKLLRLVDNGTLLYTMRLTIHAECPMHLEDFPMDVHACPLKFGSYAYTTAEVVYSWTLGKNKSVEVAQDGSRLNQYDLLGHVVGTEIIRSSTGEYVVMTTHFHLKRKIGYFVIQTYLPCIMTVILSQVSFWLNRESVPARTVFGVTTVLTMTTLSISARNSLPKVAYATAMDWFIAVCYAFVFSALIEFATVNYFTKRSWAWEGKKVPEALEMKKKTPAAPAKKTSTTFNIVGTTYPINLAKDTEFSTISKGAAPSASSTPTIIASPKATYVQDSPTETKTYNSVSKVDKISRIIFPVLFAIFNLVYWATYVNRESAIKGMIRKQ

[15] = Clearance in rat; type: ADME, organism-based; details: in vivo
[16] = Lipophilicity, log D at pH 7.4; type: physicochemical; details: buffer
[17] = molecular target: T1, GABA-A receptor; alpha-5/beta-3/gamma-2; assay: Displacement of [3H]Flumazenil from cloned human GABA alpha-5-beta-3-gamma-2 receptor expressed in HEK293 cells; type: cell-based
[18] = Volume of distribution at steady state in rat; type: ADME, organism-based; details: in vivo, read-out: Vdss
[19] = molecular target: T4, GABA-A receptor; alpha-2/beta-3/gamma-2 (Homo sapiens, UniProt P18507+P28472+P47869); assay: Displacement of [3H]Flumazenil from cloned human GABA alpha-2-beta-3-gamma-2 receptor expressed in HEK293 cells; type: cell-based
T4 sequence (P18507 whole entry): T1 sequence (P18507 whole entry)
T4 sequence (P28472 whole entry): T1 sequence (P28472 whole entry)
T4 sequence (P47869 whole entry): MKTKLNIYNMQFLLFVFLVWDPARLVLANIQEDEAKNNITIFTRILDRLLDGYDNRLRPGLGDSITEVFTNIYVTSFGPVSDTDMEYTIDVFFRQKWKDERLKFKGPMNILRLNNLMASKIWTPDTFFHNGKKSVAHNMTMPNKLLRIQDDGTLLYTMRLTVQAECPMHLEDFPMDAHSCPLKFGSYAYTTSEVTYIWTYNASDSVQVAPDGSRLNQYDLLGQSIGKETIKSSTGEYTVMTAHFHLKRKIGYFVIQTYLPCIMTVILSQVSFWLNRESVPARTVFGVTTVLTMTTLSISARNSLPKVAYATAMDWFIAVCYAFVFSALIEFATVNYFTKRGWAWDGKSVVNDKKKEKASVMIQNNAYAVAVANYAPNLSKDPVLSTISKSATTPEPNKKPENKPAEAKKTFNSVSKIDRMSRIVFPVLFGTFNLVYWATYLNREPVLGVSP

Sequence of Gamma-aminobutyric acid receptor subunit alpha-3 (Rattus norvegicus) (P20236 whole entry): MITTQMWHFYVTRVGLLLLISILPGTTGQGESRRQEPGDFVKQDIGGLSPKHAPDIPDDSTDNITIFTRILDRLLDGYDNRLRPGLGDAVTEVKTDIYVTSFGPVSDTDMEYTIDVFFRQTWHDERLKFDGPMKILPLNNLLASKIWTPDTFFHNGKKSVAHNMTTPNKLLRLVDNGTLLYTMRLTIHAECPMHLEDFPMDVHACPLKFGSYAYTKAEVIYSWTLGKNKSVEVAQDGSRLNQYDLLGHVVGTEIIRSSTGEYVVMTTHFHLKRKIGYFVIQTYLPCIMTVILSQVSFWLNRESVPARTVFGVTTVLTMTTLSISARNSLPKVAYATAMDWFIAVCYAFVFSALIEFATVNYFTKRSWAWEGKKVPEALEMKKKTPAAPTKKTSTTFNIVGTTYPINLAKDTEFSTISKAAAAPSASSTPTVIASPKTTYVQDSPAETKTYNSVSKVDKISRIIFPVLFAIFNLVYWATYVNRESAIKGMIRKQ

## CCOC(=O)c1ncn2c1Cn1ncnc1-c1cc(F)ccc1-2
[1]
  Ratio: 1
[2]
  Ki: 0.2 nM
[3]
  Ratio Ki: 1
[4]
  Efficacy: -16%
[5]
  Ratio Ki: 1

## Fc1ccc2c(c1)-c1ncnn1Cc1cncn1-2
[1]
  Ratio Ki: 4
[2]
  Ki: 10 nM
[3]
  Ratio Ki: 12
[4]
  Efficacy: -45%
[5]
  Ratio Ki: 3

## FC(F)c1ncn2c1Cn1ncnc1-c1cc(Cl)ccc1-2
[6]
  Efficacy: 21%
[7]
  Ki: 53 nM
[8]
  Efficacy: 2%
[9]
  bioavailability: 87%
[10]
  Efficacy: -20%
[11]
  solubility: 58 µg/mL (≈ 189 µM)
[12]
  Papp: 6.3 ×10⁻⁶ cm/s
[13]
  half-life: 54 min
[14]
  Ki: 48 nM
[15]
  clearance: 3.8 mL/min/kg
[4]
  Efficacy: -18%
[16]
  logD: 2
[17]
  Ki: 5.6 nM
[18]
  Vd: 0.3 L/kg
[19]
  Ki: 81 nM

## Fc1ccc2c(c1)-c1ncnn1Cc1c(Cl)ncn1-2
[1]
  Ratio Ki: 4
[2]
  Ki: 0.3 nM
[3]
  Ratio Ki: 3
[4]
  Efficacy: -33%
[5]
  Ratio Ki: 3

## CCC(=O)c1ncn2c1Cn1ncnc1-c1cc(Cl)ccc1-2
[1]
  Ratio Ki: 11
[2]
  Ki: 2.6 nM
[3]
  Ratio Ki: 12
[4]
  Efficacy: -38%
[5]
  Ratio Ki: 8

## N#Cc1ncn2c1Cn1ncnc1-c1cc(Cl)ccc1-2
[1]
  Ratio Ki: 11
[2]
  Ki: 6.4 nM
[3]
  Ratio Ki: 7
[4]
  Efficacy: -31%
[5]
  Ratio Ki: 9

— ChEMBL document CHEMBL1154288, “The discovery and unique pharmacological profile of RO4938581 and RO4882224 as potent and selective GABAA alpha5 inverse agonists for the treatment of cognitive dysfunction” (Bioorg Med Chem Lett, 2009)
